This passage reports IC50 and inhibition results from patent US6121431A, “Nucleoside derivatives” (Medivir AB, priority 1990, dated 2000).

pIC50: −log10 of the molar value.

In one assay the test system is human immuno deficiency virus. In words: Effect of compounds of the formula I on HIV in H9 cells (HIV multiplication in cell culture, HIV antigen containing cells). Conditions: Human immunodeficiency virus 1, HIV (HTLV-IIIB), 6-7 days, 37° C., read-out: Concentration for 50% inhibition (IC50) of human immuno deficiency virus multiplication in cell culture. In kind it is cell-based. The protocol:
Test I. Effect of compounds of the formula I on HIV in H9 cells
HIV Infection of H9 Cells
H9 cells, 10^5 cells per well on a 24 well plate, suspended in 2 ml RPMI-medium containing 10% fetal calf serum […] penicillin, 10 mg/mil streptomycin sulfate and 2 mg/ml polybrene are exposed to HIV (HTLV-IIIB) and different concentrations of the test compounds. The plates are incubated at 37° C. in 5% CO2 for 6-7 days. The contents in each well is then homogenized with a pipette and transferred to a centrifuge tube. After centrifugation for 10 min at 1500 rpm the supernatant is removed and the cell pellet is analyzed by fixing in methanol on glass plates. Human HIV positive serum diluted 1:80 or 1:160 is added and incubated for 30 min at 37° C. The plate is then washed with phosphate-buffered saline (PBS) containing Ca^2+ and Mg^2+. Sheep antihuman conjugate (FITC) is added and after a new incubation the plate is again washed with PBS. Contrast staining is done with Evans blue and after drying the frequency of HIV antigen containing cells is determined in a microscope.
On to `Nc1ccn([C@H]2C[C@H](CO)[C@@H](CO)O2)c(=O)n1` [1-2',3'-Dideoxy-3'-C-(hydroxymethyl)-β-D-erythropentofuranosyl]-cytosine], for which the pIC50 is 8.00.
Still for that read-out and setting: then `Cc1cn([C@@H]2C[C@H](CO)[C@@H](CO)O2)c(=O)[nH]c1=O` [1-(2',3'-Dideoxy-3'-C-(hydroxymethyl)-α-D-erythro-pentafuranosyl]thymine], with 5.00; and `Nc1ccn([C@@H]2C[C@H](CO)[C@@H](CO)O2)c(=O)n1` [1-[2',3'-Dideoxy-3'-C-(hydroxymethyl)-α-D-erythro-pentafuranosyl]cytosine], with 5.30.
On the same count and under the same terms, in the case of `Cc1cn([C@H]2C[C@H](CO)[C@@H](CO)O2)c(=O)[nH]c1=O` [1-[2',3'-Dideoxy-3'-C-(hydroxymethyl)-β-D-erythro-pentofuranosyl]-thymine] it was 5.30.
The same measure, in the same setting: in the case of `Nc1ncnc2c1ncn2[C@@H]1C[C@H](CO)[C@@H](CO)O1` [9-[2',3'-Dideoxy-3'-C-(hydroxymethyl)-α-D-erythropentofuranosyl]-adenosine] it was 5.00.

The next assay has as its system H9 cells. The assay is described as follows: Cellular toxicity on H9 cells (inhibition of cell multiplication). The conditions noted are these: Homo sapiens, 1 mM, 48 h. In kind it is cell-based. The protocol: Test II. Cellular toxicity
H9 cells, 2×10^7 cells per plate, are incubated in RPMI-1640 medium containing 10% fetal calf serum, 70 mg/l penicillin, 100 mg/l streptomycin and 10 mM hepes, in absence or presence of test compounds. The number of cells per plate is determined after 48 h. Cells incubated in the absence of test compounds then underwent two cell division cycles.
F5000 cells, which are human embryo cells, 1×10^5 cells per plate, are incubated in Eagle's minimal essential medium, supplemented with Earle's sals, non-essential amino acids, 10% fetal calf serum, 10 mM hepes, 70 mg/l penicillin and 100 mg/l streptomycin, in absence or presence of test compounds. The number of cells per plate is determined after 48 h. Cells incubated in the absence of test compounds underwent one cell division cycle.
One may read the inhibition as the percentage by which the read-out fell short of the control. High values mean a strong effect, low ones a weak effect. The compound `Nc1ccn([C@H]2C[C@H](CO)[C@@H](CO)O2)c(=O)n1` [1-2',3'-Dideoxy-3'-C-(hydroxymethyl)-β-D-erythropentofuranosyl]-cytosine] showed an inhibition at 1000 µM of 50%.
